PubChem BioAssay (NCI)
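In this assay, cells in 96-well plates receive the compound at five concentrations for 48 hours. Endpoints are linearly interpolated between the surrounding concentrations. TGI denotes the concentration required for complete inhibition of growth.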

Columns and labels:
Test in all cases: DTP human tumour cell line panel, 48 h
786-0 renal = system: 786-0 renal
A498 renal = system: A498 renal
A549 NSCLC = system: A549 NSCLC
ACHN renal = system: ACHN renal
BT-549 breast = system: BT-549 breast
CAKI-1 renal = system: CAKI-1 renal
COLO 205 colon = system: COLO 205 colon
DU-145 prostate = system: DU-145 prostate
EKVX NSCLC = system: EKVX NSCLC
HCC-2998 colon = system: HCC-2998 colon
HCT-116 colon = system: HCT-116 colon
HCT-15 colon = system: HCT-15 colon
HOP-62 NSCLC = system: HOP-62 NSCLC
HOP-92 NSCLC = system: HOP-92 NSCLC
HS 578T breast = system: HS 578T breast
HT29 colon = system: HT29 colon
IGROV1 ovarian = system: IGROV1 ovarian
K-562 leukemia = system: K-562 leukemia
KM12 colon = system: KM12 colon
LOX IMVI melanoma = system: LOX IMVI melanoma
M14 melanoma = system: M14 melanoma
MALME-3M melanoma = system: MALME-3M melanoma
MCF7 breast = system: MCF7 breast
MDA-MB-231 breast = system: MDA-MB-231 breast
MDA-MB-435 = system: MDA-MB-435
MDA-N = system: MDA-N
MOLT-4 leukemia = system: MOLT-4 leukemia
NCI-H226 lung = system: NCI-H226 lung
NCI-H23 lung = system: NCI-H23 lung
NCI-H460 lung = system: NCI-H460 lung
NCI-H522 lung = system: NCI-H522 lung
NCI/ADR-RES ovarian = system: NCI/ADR-RES ovarian
OVCAR-3 ovarian = system: OVCAR-3 ovarian
OVCAR-4 ovarian = system: OVCAR-4 ovarian
OVCAR-5 ovarian = system: OVCAR-5 ovarian
OVCAR-8 ovarian = system: OVCAR-8 ovarian
PC-3 prostate = system: PC-3 prostate
RPMI-8226 leukemia = system: RPMI-8226 leukemia
RXF 393 renal = system: RXF 393 renal
SF-268 CNS = system: SF-268 CNS
SF-295 CNS = system: SF-295 CNS
SF-539 CNS = system: SF-539 CNS
SK-MEL-2 melanoma = system: SK-MEL-2 melanoma
SK-MEL-28 melanoma = system: SK-MEL-28 melanoma
SK-MEL-5 melanoma = system: SK-MEL-5 melanoma
SK-OV-3 ovarian = system: SK-OV-3 ovarian
SN12C renal = system: SN12C renal
SNB-19 CNS = system: SNB-19 CNS
SNB-75 CNS = system: SNB-75 CNS
SR leukemia = system: SR leukemia
SW-620 colon = system: SW-620 colon
T-47D breast = system: T-47D breast
TK-10 renal = system: TK-10 renal
U251 CNS = system: U251 CNS
UACC-257 melanoma = system: UACC-257 melanoma
UACC-62 melanoma = system: UACC-62 melanoma
UO-31 renal = system: UO-31 renal
CCRF-CEM leukemia = system: CCRF-CEM leukemia
HL-60(TB) leukemia = system: HL-60(TB) leukemia

## O=C(O)c1ccccc1C(=O)c1ccc2c(c1)Cc1ccccc1-2
786-0 renal
  TGI: > 100 µM
A498 renal
  TGI: > 100 µM
A549 NSCLC
  TGI: > 100 µM
ACHN renal
  TGI: > 100 µM
BT-549 breast
  TGI: > 100 µM
CAKI-1 renal
  TGI: > 100 µM
COLO 205 colon
  TGI: > 100 µM
DU-145 prostate
  TGI: > 100 µM
EKVX NSCLC
  TGI: > 100 µM
HCC-2998 colon
  TGI: 88 µM
HCT-116 colon
  TGI: > 100 µM
HCT-15 colon
  TGI: > 100 µM
HOP-62 NSCLC
  TGI: > 100 µM
HOP-92 NSCLC
  TGI: > 100 µM
HS 578T breast
  TGI: > 100 µM
HT29 colon
  TGI: > 100 µM
IGROV1 ovarian
  TGI: > 100 µM
K-562 leukemia
  TGI: > 100 µM
KM12 colon
  TGI: > 100 µM
LOX IMVI melanoma
  TGI: > 100 µM
M14 melanoma
  TGI: > 100 µM
MALME-3M melanoma
  TGI: > 100 µM
MCF7 breast
  TGI: > 100 µM
MDA-MB-231 breast
  TGI: > 100 µM
MDA-MB-435
  TGI: > 100 µM
MDA-N
  TGI: > 100 µM
MOLT-4 leukemia
  TGI: > 100 µM
NCI-H226 lung
  TGI: > 100 µM
NCI-H23 lung
  TGI: > 100 µM
NCI-H460 lung
  TGI: > 100 µM
NCI-H522 lung
  TGI: > 100 µM
NCI/ADR-RES ovarian
  TGI: > 100 µM
OVCAR-3 ovarian
  TGI: > 100 µM
OVCAR-4 ovarian
  TGI: > 100 µM
OVCAR-5 ovarian
  TGI: > 100 µM
OVCAR-8 ovarian
  TGI: > 100 µM
PC-3 prostate
  TGI: > 100 µM
RPMI-8226 leukemia
  TGI: > 100 µM
RXF 393 renal
  TGI: > 100 µM
SF-268 CNS
  TGI: > 100 µM
SF-295 CNS
  TGI: > 100 µM
SF-539 CNS
  TGI: > 100 µM
SK-MEL-2 melanoma
  TGI: > 100 µM
SK-MEL-28 melanoma
  TGI: > 100 µM
SK-MEL-5 melanoma
  TGI: > 100 µM
SK-OV-3 ovarian
  TGI: > 100 µM
SN12C renal
  TGI: > 100 µM
SNB-19 CNS
  TGI: > 100 µM
SNB-75 CNS
  TGI: > 100 µM
SR leukemia
  TGI: > 100 µM
SW-620 colon
  TGI: > 100 µM
T-47D breast
  TGI: > 100 µM
TK-10 renal
  TGI: > 100 µM
U251 CNS
  TGI: > 100 µM
UACC-257 melanoma
  TGI: > 100 µM
UACC-62 melanoma
  TGI: > 100 µM
UO-31 renal
  TGI: > 100 µM

## S=C1NC2=C(CSC/C2=C\c2ccccc2)C(c2ccccc2)N1 (stereo not drawn)
786-0 renal
  TGI: > 100 µM
A549 NSCLC
  TGI: > 100 µM
ACHN renal
  TGI: > 100 µM
BT-549 breast
  TGI: 78.7 µM
CAKI-1 renal
  TGI: > 100 µM
CCRF-CEM leukemia
  TGI: > 100 µM
COLO 205 colon
  TGI: > 100 µM
DU-145 prostate
  TGI: > 100 µM
EKVX NSCLC
  TGI: > 100 µM
HCC-2998 colon
  TGI: > 100 µM
HCT-116 colon
  TGI: > 100 µM
HCT-15 colon
  TGI: > 100 µM
HL-60(TB) leukemia
  TGI: 44.5 µM
HOP-62 NSCLC
  TGI: > 100 µM
HOP-92 NSCLC
  TGI: 97.4 µM
HT29 colon
  TGI: > 100 µM
IGROV1 ovarian
  TGI: > 100 µM
K-562 leukemia
  TGI: > 100 µM
KM12 colon
  TGI: > 100 µM
LOX IMVI melanoma
  TGI: > 100 µM
M14 melanoma
  TGI: > 100 µM
MALME-3M melanoma
  TGI: 99.4 µM
MCF7 breast
  TGI: > 100 µM
MDA-MB-231 breast
  TGI: > 100 µM
MDA-N
  TGI: > 100 µM
MOLT-4 leukemia
  TGI: > 100 µM
NCI-H226 lung
  TGI: > 100 µM
NCI-H23 lung
  TGI: > 100 µM
NCI-H460 lung
  TGI: > 100 µM
NCI-H522 lung
  TGI: > 100 µM
NCI/ADR-RES ovarian
  TGI: > 100 µM
OVCAR-3 ovarian
  TGI: > 100 µM
OVCAR-4 ovarian
  TGI: > 100 µM
OVCAR-5 ovarian
  TGI: > 100 µM
OVCAR-8 ovarian
  TGI: > 100 µM
PC-3 prostate
  TGI: > 100 µM
RPMI-8226 leukemia
  TGI: > 100 µM
RXF 393 renal
  TGI: > 100 µM
SF-268 CNS
  TGI: > 100 µM
SF-295 CNS
  TGI: 89.1 µM
SF-539 CNS
  TGI: > 100 µM
SK-MEL-2 melanoma
  TGI: > 100 µM
SK-MEL-28 melanoma
  TGI: > 100 µM
SK-MEL-5 melanoma
  TGI: 24.5 µM
SK-OV-3 ovarian
  TGI: > 100 µM
SN12C renal
  TGI: > 100 µM
SNB-19 CNS
  TGI: > 100 µM
SR leukemia
  TGI: > 100 µM
SW-620 colon
  TGI: > 100 µM
T-47D breast
  TGI: > 100 µM
TK-10 renal
  TGI: > 100 µM
U251 CNS
  TGI: > 100 µM
UACC-257 melanoma
  TGI: 58.8 µM
UACC-62 melanoma
  TGI: > 100 µM
UO-31 renal
  TGI: > 100 µM

## O=[N+]([O-])/C(Cl)=C(\NCCN/C(C(Cl)=C(Cl)Cl)=C(/Cl)[N+](=O)[O-])C(Cl)=C(Cl)Cl
786-0 renal
  TGI: > 100 µM
A498 renal
  TGI: > 100 µM
A549 NSCLC
  TGI: > 100 µM
ACHN renal
  TGI: > 100 µM
BT-549 breast
  TGI: > 100 µM
CAKI-1 renal
  TGI: > 100 µM
CCRF-CEM leukemia
  TGI: > 100 µM
COLO 205 colon
  TGI: > 100 µM
DU-145 prostate
  TGI: > 100 µM
EKVX NSCLC
  TGI: > 100 µM
HCC-2998 colon
  TGI: > 100 µM
HCT-116 colon
  TGI: > 100 µM
HCT-15 colon
  TGI: > 100 µM
HL-60(TB) leukemia
  TGI: 87.5 µM
HOP-62 NSCLC
  TGI: > 100 µM
HOP-92 NSCLC
  TGI: 53.9 µM
IGROV1 ovarian
  TGI: > 100 µM
K-562 leukemia
  TGI: > 100 µM
KM12 colon
  TGI: > 100 µM
LOX IMVI melanoma
  TGI: 37.8 µM
M14 melanoma
  TGI: > 100 µM
MALME-3M melanoma
  TGI: > 100 µM
MCF7 breast
  TGI: > 100 µM
MDA-MB-231 breast
  TGI: > 100 µM
MDA-MB-435
  TGI: > 100 µM
MDA-N
  TGI: > 100 µM
MOLT-4 leukemia
  TGI: 80.7 µM
NCI-H226 lung
  TGI: > 100 µM
NCI-H23 lung
  TGI: > 100 µM
NCI-H460 lung
  TGI: > 100 µM
NCI/ADR-RES ovarian
  TGI: > 100 µM
OVCAR-3 ovarian
  TGI: > 100 µM
OVCAR-5 ovarian
  TGI: > 100 µM
OVCAR-8 ovarian
  TGI: > 100 µM
PC-3 prostate
  TGI: > 100 µM
RPMI-8226 leukemia
  TGI: 65.8 µM
SF-268 CNS
  TGI: > 100 µM
SF-295 CNS
  TGI: > 100 µM
SF-539 CNS
  TGI: > 100 µM
SK-MEL-28 melanoma
  TGI: > 100 µM
SK-OV-3 ovarian
  TGI: > 100 µM
SN12C renal
  TGI: > 100 µM
SNB-19 CNS
  TGI: > 100 µM
SNB-75 CNS
  TGI: > 100 µM
SR leukemia
  TGI: 50.4 µM
SW-620 colon
  TGI: > 100 µM
T-47D breast
  TGI: > 100 µM
TK-10 renal
  TGI: > 100 µM
U251 CNS
  TGI: > 100 µM
UACC-62 melanoma
  TGI: > 100 µM
UO-31 renal
  TGI: > 100 µM

## CCOC(=O)C(NC(=O)Nc1ccc(Cl)cc1)(OC)C(F)(F)F (stereo not drawn)
786-0 renal
  TGI: > 100 µM
A498 renal
  TGI: > 100 µM
A549 NSCLC
  TGI: > 100 µM
ACHN renal
  TGI: > 100 µM
BT-549 breast
  TGI: > 100 µM
CAKI-1 renal
  TGI: > 100 µM
COLO 205 colon
  TGI: > 100 µM
EKVX NSCLC
  TGI: > 100 µM
HCC-2998 colon
  TGI: 32.7 µM
HCT-116 colon
  TGI: > 100 µM
HCT-15 colon
  TGI: > 100 µM
HL-60(TB) leukemia
  TGI: > 100 µM
HS 578T breast
  TGI: > 100 µM
HT29 colon
  TGI: > 100 µM
IGROV1 ovarian
  TGI: > 100 µM
LOX IMVI melanoma
  TGI: > 100 µM
M14 melanoma
  TGI: > 100 µM
MDA-MB-435
  TGI: > 100 µM
MDA-N
  TGI: > 100 µM
NCI-H23 lung
  TGI: > 100 µM
NCI/ADR-RES ovarian
  TGI: > 100 µM
OVCAR-5 ovarian
  TGI: > 100 µM
OVCAR-8 ovarian
  TGI: > 100 µM
PC-3 prostate
  TGI: > 100 µM
RXF 393 renal
  TGI: > 100 µM
SF-268 CNS
  TGI: > 100 µM
SF-539 CNS
  TGI: > 100 µM
SK-MEL-2 melanoma
  TGI: 64.8 µM
SK-MEL-28 melanoma
  TGI: > 100 µM
SK-MEL-5 melanoma
  TGI: > 100 µM
SK-OV-3 ovarian
  TGI: > 100 µM
SN12C renal
  TGI: > 100 µM
SNB-19 CNS
  TGI: > 100 µM
SNB-75 CNS
  TGI: > 100 µM
SR leukemia
  TGI: > 100 µM
SW-620 colon
  TGI: > 100 µM
T-47D breast
  TGI: > 100 µM
TK-10 renal
  TGI: > 100 µM
U251 CNS
  TGI: > 100 µM
UACC-257 melanoma
  TGI: > 100 µM
